Measurements as given in paper PMC1784591 (Infectious Diseases in Obstetrics and Gynecology, 2004).
Where a name gives a salt, the structure may show the parent alone.

Key:
[1] = cited from earlier work
[2] = cited from earlier work; remark: listed apart in the source
[3] = cited from earlier work; remark: listed apart in the source
[4] = system: term human placenta (single cotyledon); test: ex vivo human placental perfusion, single cotyledon, open system; settings: range over placentas
[5] = system: term human placenta (single cotyledon); test: ex vivo human placental perfusion, closed-closed recirculation system; format: in vitro ADME; settings: system closed for 1-5 h; peak and trough concentrations

## CN[C@H](CC(C)C)C(=O)N[C@H]1C(=O)N[C@@H](CC(N)=O)C(=O)N[C@H]2C(=O)N[C@H]3C(=O)N[C@H](C(=O)N[C@H](C(=O)O)c4cc(O)cc(O)c4-c4cc3ccc4O)[C@H](O)c3ccc(c(Cl)c3)Oc3cc2cc(c3O[C@@H]2O[C@H](CO)[C@@H](O)[C@H](O)[C@H]2O[C@H]2C[C@](C)(N)[C@H](O)[C@H](C)O2)Oc2ccc(cc2Cl)[C@H]1O [vancomycin, vancomycin hydrochloride]
[1]
  fraction bound to plasma proteins (unavailable for transfer): a third to a half
[1]; non-pregnant subjects
  bound to plasma proteins: 30-55%
[2]
  heparin concentration above which vancomycin precipitates when mixed: more than 1 unit/ml
[3]; non-pregnant subjects
  excreted by glomerular filtration: 90%
[3]; without meningitis
  CSF levels: undetectable
[4]; peak concentrations
  Clearance index, mean peak range: 0.000-0.080
[4]; trough concentrations
  Clearance index, mean trough range: 0.00-0.17
[5]
  accumulation of vancomycin (fetal): No accumulation
